Data: patent US20240059691A1 (KALVISTA PHARMACEUTICALS LIMITED, priority 2020, published 2024)

Tests used:
[1] = biological target: Plasma Kallikrein (Homo sapiens (Human), UniProt P03952); test: Determination of related protease inhibition: Plasma Kallikrein (fluorogenic substrate at Km); type: biochemical; conditions: 25° C., read-out: IC50 (human PKal)
Summary of the method: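 IC50 values derive from the linear rate of fluorescence increase, normalised to uninhibited enzyme as 100% activity. Each human protease was run against its fluorogenic substrate at Km concentration with varying compound levels, with product fluorescence followed over 5 min at 25 °C.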

[2] = biological target: Human Factor XIIa (Homo sapiens (Human), UniProt P00748); test: Determination of FXIIa inhibition (fluorogenic substrate H-DPro-Phe-Arg-AFC, IC50 assay); type: biochemical; conditions: substrate H-DPro-Phe-Arg-AFC at Km, 25° C.; class scale A-G
Summary of the method: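 IC50 derived from % remaining activity, taken as the linear fluorescence rate over a 5 min read at 25° C. Substrate H-DPro-Phe-Arg-AFC was used at its Km (Michaelis-Menten) with human FXIIa and serial compound dilutions, 25° C.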

Human Factor XIIa, sequence (P00748 373-615): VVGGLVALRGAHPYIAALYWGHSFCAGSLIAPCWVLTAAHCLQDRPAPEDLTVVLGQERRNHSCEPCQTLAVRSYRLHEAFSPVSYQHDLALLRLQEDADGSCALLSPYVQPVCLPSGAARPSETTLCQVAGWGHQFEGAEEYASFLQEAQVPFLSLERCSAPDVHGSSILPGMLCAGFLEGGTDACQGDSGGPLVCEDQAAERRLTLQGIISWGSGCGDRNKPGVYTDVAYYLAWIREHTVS
Plasma Kallikrein, sequence (P03952 391-638): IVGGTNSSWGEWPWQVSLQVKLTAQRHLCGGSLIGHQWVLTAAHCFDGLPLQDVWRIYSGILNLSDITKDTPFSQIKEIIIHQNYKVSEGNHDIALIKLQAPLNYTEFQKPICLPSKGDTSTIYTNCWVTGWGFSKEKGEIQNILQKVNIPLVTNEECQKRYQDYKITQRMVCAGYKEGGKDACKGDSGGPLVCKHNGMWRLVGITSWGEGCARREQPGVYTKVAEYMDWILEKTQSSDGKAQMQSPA
Plasma Kallikrein, sequence (P03952 20-390 partner): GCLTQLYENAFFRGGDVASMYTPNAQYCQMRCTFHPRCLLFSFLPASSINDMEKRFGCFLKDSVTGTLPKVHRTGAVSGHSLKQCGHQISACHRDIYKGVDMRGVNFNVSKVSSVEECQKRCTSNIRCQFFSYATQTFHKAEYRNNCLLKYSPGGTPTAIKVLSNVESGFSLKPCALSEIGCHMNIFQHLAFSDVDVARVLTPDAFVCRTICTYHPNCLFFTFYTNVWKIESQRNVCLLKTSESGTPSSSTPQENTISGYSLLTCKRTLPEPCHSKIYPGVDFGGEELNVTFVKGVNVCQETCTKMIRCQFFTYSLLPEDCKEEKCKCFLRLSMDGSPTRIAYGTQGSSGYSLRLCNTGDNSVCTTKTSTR

What does the source list for `CNc1cc(NCc2ccc(N3CCn4c(nnc4C(F)F)C3)nc2)ccn1` [Example 1281, N4-((6-(3-(difluoromethyl)-5,6-dihydro-[1,2,4]triazolo[4,3-a]pyrazin-7(8H)-yl)pyridin-3-yl)methyl)-N2-methylpyridine-2,4-diamine]?
IC50 [1]: > 40 µM; IC50 [2]: 10 to 40 µM

With `CN1CCC(OCc2ccc(CNc3ccc4cnc(N)cc4c3)cc2)CC1` [Example 2189, N6-(4-(((1-methylpiperidin-4-yl)oxy)methyl)benzyl)isoquinoline-3,6-diamine] as the compound, how does the IC50 [1] read?
The IC50 was 10 to 40 µM.

And the IC50 [2]?
The IC50 was 10 to 40 µM.

`CC(C)(O)c1cn2c(n1)CN(c1ccc(CNc3cccc4c(N)nccc34)cn1)CC2` [Example 1163, 2-(7-(5-(((1-aminoisoquinolin-5-yl)amino)methyl)pyridin-2-yl)-5,6,7,8-tetrahydroimidazo[1,2-a]pyrazin-2-yl)propan-2-ol] was tested. Which IC50 [1] did it give?
Its IC50 is > 40 µM.

And the IC50 [2]?
Its IC50 is 3 to 10 µM.

`CN1CCC(COc2cc(CNc3ccc4ncc(=O)[nH]c4c3)ccn2)CC1` [Example 4456] was tested. Which IC50 [1] did it give?
Its IC50 is 10 to 40 µM.

What about the IC50 [2] of the same compound?
The IC50 was 40 to 100 µM.

`Cc1cc2c(NCc3ccc(N4CCn5c(nnc5C(F)F)C4)nc3)ccnc2[nH]1` [Example 1278, N-((6-(3-(Difluoromethyl)-5,6-dihydro-[1,2,4]triazolo[4,3-a]pyrazin-7(8H)-yl)pyridin-3-yl)methyl)-2-methyl-1H-pyrrolo[2,3-b]pyridin-4-amine] was tested. Which IC50 [1] did it give?
Its IC50 is > 40 µM.

What about the IC50 [2] of the same compound?
Its IC50 is 1 to 3 µM.

Which results are given for `CN1CCC(OCc2ccc(COc3ccc4c(N)nccc4c3)cc2)CC1` [Example 1011, 6-((4-(((1-Methylpiperidin-4-yl)oxy)methyl)benzyl)oxy)isoquinolin-1-amine]?
IC50 [1]: 10 to 40 µM; IC50 [2]: 3 to 10 µM

Which results are given for `Nc1ncc(Cl)c2cc(NCc3ccc(NCCc4nccn4C(F)F)nc3)ccc12` [Example 1182, 4-chloro-N6-((6-((2-(1-(difluoromethyl)-1H-imidazol-2-yl)ethyl)amino)pyridin-3-yl)methyl)isoquinoline-1,6-diamine]?
IC50 [1]: > 40 µM; IC50 [2]: 10 to 40 µM

What does the source list for `CN1CCC(COc2cc(CNc3cccc4c(N)ncc(F)c34)ccn2)CC1` [Example 4461, 4-fluoro-N5-((2-((1-methylpiperidin-4-yl)methoxy)pyridin-4-yl)methyl)isoquinoline-1,5-diamine]?
IC50 [1]: > 40 µM; IC50 [2]: 3 to 10 µM

For `CN1CCC(Oc2ccc(CNc3cnc4[nH]cc(Cl)c4c3)cc2)CC1` [Example 1004, 3-Chloro-N-(4-((1-methylpiperidin-4-yl)oxy)benzyl)-1H-pyrrolo[2,3-b]pyridin-5-amine], which IC50 [1] is on record?
The IC50 was > 40 µM.

And the IC50 [2]?
The IC50 was 10 to 40 µM.

`Nc1ncc(Cl)c2cc(NCc3ccc(N4CCn5ncc(O)c5C4)nc3)ccc12` [Example 1267, 5-(5-(((1-amino-4-chloroisoquinolin-6-yl)amino)methyl)pyridin-2-yl)-4,5,6,7-tetrahydropyrazolo[1,5-a]pyrazin-3-ol] was tested. Which IC50 [1] did it give?
The IC50 was > 40 µM.

And the IC50 [2]?
Its IC50 is 3 to 10 µM.

With `Nc1ncc(Cl)c2cc(NCc3ccc(N4CCn5nccc5C4CO)nc3)ccc12` (centres unmarked) [Example 1273, (5-(5-(((1-amino-4-chloroisoquinolin-6-yl)amino)methyl)pyridin-2-yl)-4,5,6,7-tetrahydropyrazolo[1,5-a]pyrazin-4-yl)methanol] as the compound, how does the IC50 [1] read?
The IC50 was > 40 µM.

And the IC50 [2]?
The IC50 was 3 to 10 µM.

Which results are given for `CN1CCC(COc2cc(CNc3cnc4c(N)nccc4c3)ccn2)CC1` [Example 4293, 3-N-({2-[(1-methylpiperidin-4-yl)methoxy]pyridin-4-yl}methyl)-1,7-naphthyridine-3,8-diamine]?
IC50 [1]: > 40 µM; IC50 [2]: 0.3 to 1 µM

Which IC50 [1] does the source give for `CC(C)(O)[C@H]1CCN(c2ccc(CNc3ccc4c(N)ncc(Cl)c4c3)cn2)C1` [Example 1176, 2-[(3S)-1-(5-{[(1-amino-4-chloroisoquinolin-6-yl)amino]methyl}pyridin-2-yl)pyrrolidin-3-yl]propan-2-ol] here?
Its IC50 is > 40 µM.

What about the IC50 [2] of the same compound?
Its IC50 is 3 to 10 µM.

Which results are given for `Cn1c(COc2cc(CNc3cccc4c(N)nccc34)ccn2)nnc1C1CC1` [Example 4468, N5-((2-((5-cyclopropyl-4-methyl-4H-1,2,4-triazol-3-yl)methoxy)pyridin-4-yl)methyl)isoquinoline-1,5-diamine]?
IC50 [1]: > 40 µM; IC50 [2]: 1 to 3 µM

For `CN1CCC(CNc2ccc(CNc3ccc4cncc(Cl)c4c3)cn2)CC1` [Example 1188, 4-chloro-N-((6-(((1-methylpiperidin-4-yl)methyl)amino)pyridin-3-yl)methyl)isoquinolin-6-amine], which IC50 [1] is on record?
Its IC50 is > 100 µM.

What about the IC50 [2] of the same compound?
Its IC50 is 40 to 100 µM.

Which IC50 [1] does the source give for `CC(C)N1CCC(CN(CCCO)C(=O)c2cccc(CNc3cccc4c(N)nccc34)c2)CC1` [Example 5441, 3-(((1-aminoisoquinolin-5-yl)amino)methyl)-N-(3-hydroxypropyl)-N-((1-isopropylpiperidin-4-yl)methyl)benzamide] here?
Its IC50 is > 40 µM.

And the IC50 [2]?
The IC50 was 3 to 10 µM.

With `Nc1nccc2c(NCc3ccnc(N4CCn5ccnc5C4)c3)cccc12` [Example 5436, N5-((2-(5,6-dihydroimidazo[1,2-a]pyrazin-7(8H)-yl)pyridin-4-yl)methyl)isoquinoline-1,5-diamine] as the compound, how does the IC50 [1] read?
The IC50 was > 40 µM.

What about the IC50 [2] of the same compound?
The IC50 was 10 to 40 µM.

What does the source list for `CN1CCN(c2cc(CNc3ccc4c(N)ncc(Cl)c4c3)ccn2)CC1` [Example 4427, 4-chloro-6-N-{[2-(4-methylpiperazin-1-yl)pyridin-4-yl]methyl}isoquinoline-1,6-diamine]?
IC50 [1]: > 40 µM; IC50 [2]: 10 to 40 µM

How did the IC50 [1] turn out when `Cc1cnc2n1CCC(COc1cc(CNc3cccc4c(N)nccc34)ccn1)C2` (centres unmarked) [Example 4320, N5-[[2-[(3-methyl-5,6,7,8-tetrahydroimidazo[1,2-a]pyridin-7-yl)methoxy]-4-pyridyl]methyl]isoquinoline-1,5-diamine] was run?
The IC50 was 3 to 10 µM.

What about the IC50 [2] of the same compound?
The IC50 was 0.1 to 0.3 µM.

What does the source list for `Nc1nccc2c(NCc3ccc(N4CCn5nccc5C4CO)nc3)cccc12` (centres unmarked) [Example 1268, (5-(5-(((1-aminoisoquinolin-5-yl)amino)methyl)pyridin-2-yl)-4,5,6,7-tetrahydropyrazolo[1,5-a]pyrazin-4-yl)methanol]?
IC50 [1]: > 40 µM; IC50 [2]: 3 to 10 µM

How did the IC50 [1] turn out when `Nc1ncc(Cl)c2cc(NCc3cnc(NCCC(=O)N4CCCC4)nc3)ccc12` [Example 1040, 3-[(5-{[(1-amino-4-chloroisoquinolin-6-yl)amino]methyl}pyrimidin-2-yl)amino]-1-(pyrrolidin-1-yl)propan-1-one] was run?
Its IC50 is > 40 µM.

And the IC50 [2]?
The IC50 was 10 to 40 µM.

What does the source list for `Cc1cc2c(NCc3ccc(NCC4CCN(C)CC4)nc3)ncnc2[nH]1` [Example 1254, 6-methyl-N-((6-(((1-methylpiperidin-4-yl)methyl)amino)pyridin-3-yl)methyl)-7H-pyrrolo[2,3-d]pyrimidin-4-amine]?
IC50 [1]: > 40 µM; IC50 [2]: 10 to 40 µM

For `Nc1ncc(Cl)c2cc(NCc3ccc(N4CC5(CC(O)c6nccn65)C4)nc3)ccc12` (centres unmarked) [Example 1270, 1-(5-(((1-amino-4-chloroisoquinolin-6-yl)amino)methyl)pyridin-2-yl)-6′,7′-dihydrospiro[azetidine-3,5′-pyrrolo[1,2-a]imidazol]-7′-ol], which IC50 [1] is on record?
The IC50 was > 40 µM.

And the IC50 [2]?
Its IC50 is 10 to 40 µM.

Which IC50 [1] does the source give for `Nc1nccc2c(NCc3ccc(N4CCn5nccc5C4)nc3)cccc12` [Example 1156, N5-((6-(6,7-dihydropyrazolo[1,5-a]pyrazin-5(4H)-yl)pyridin-3-yl)methyl)isoquinoline-1,5-diamine] here?
The IC50 was > 40 µM.

What about the IC50 [2] of the same compound?
Its IC50 is 10 to 40 µM.

How did the IC50 [1] turn out when `Cc1cc(NCc2ccc(NCC3CCN(C)CC3)nc2)cc2ccncc12` [Example 1102, 8-methyl-N-((6-(((1-methylpiperidin-4-yl)methyl)amino)pyridin-3-yl)methyl)isoquinolin-6-amine] was run?
The IC50 was 10 to 40 µM.

And the IC50 [2]?
The IC50 was 3 to 10 µM.
